Data on 26 compounds can be found in ChEMBL document CHEMBL1156589, “2-Arylpyrimidines: novel CRF-1 receptor antagonists” (Bioorg Med Chem Lett, 2008).

Molecules are shown by their SMILES. In brackets after ≈: the same amount, converted by molar mass.

In data set [1] the target is T1, Corticotropin-releasing factor receptor 1 (Homo sapiens, UniProt P34998).
T1 sequence (P34998 whole entry): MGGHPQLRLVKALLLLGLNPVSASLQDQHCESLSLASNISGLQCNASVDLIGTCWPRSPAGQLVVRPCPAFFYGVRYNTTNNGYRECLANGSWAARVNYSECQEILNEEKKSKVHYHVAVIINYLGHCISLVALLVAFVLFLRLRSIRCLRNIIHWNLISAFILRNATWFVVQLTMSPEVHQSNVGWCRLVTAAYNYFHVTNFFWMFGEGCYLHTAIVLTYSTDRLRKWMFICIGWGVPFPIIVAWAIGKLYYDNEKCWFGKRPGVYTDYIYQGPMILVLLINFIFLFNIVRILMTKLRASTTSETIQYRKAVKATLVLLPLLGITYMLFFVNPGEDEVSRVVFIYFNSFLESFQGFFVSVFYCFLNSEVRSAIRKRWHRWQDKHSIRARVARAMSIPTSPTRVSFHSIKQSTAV
In words: biochemical. In kind it is cell-based, IMR-32.
Description: Displacement of [125I]sauvagine from human CRF1 receptor expressed in IMR32 cells

The target of data set [2] is T1, Corticotropin-releasing factor receptor 1. In words: Antagonist activity at CRF1 receptor expressed in mouse AtT20 cells assessed as inhibition of sauvagine-stimulated cAMP accumulation. In kind it is functional, cell-based. Background: Cyclic AMP is a second messenger, typically raised through Gs and lowered through Gi signalling.
Data set [3] in a line: Cmax in Sprague-Dawley rat at 20 mg/kg, po and 3 mg/kg, iv. As to conditions: in vivo. In kind it is ADME, organism-based.
Data set [4] can be described thus: Oral bioavailability in Sprague-Dawley rat at 20 mg/kg. In kind it is ADME, organism-based. To be noted: in vivo.
Data set [5] is described as follows: Tmax in Sprague-Dawley rat at 20 mg/kg, po and 3 mg/kg, iv. In kind it is ADME, organism-based. As to conditions: in vivo.
Data set [6] can be described thus: Volume of distribution in Sprague-Dawley rat at 20 mg/kg, po and 3 mg/kg, iv. As to conditions: in vivo. In kind it is ADME, organism-based.
Data set [7] in a line: Solubility in 0.1 N hydrochloric acid. In kind it is physicochemical.
The nature of data set [8]: Half life in Sprague-Dawley rat at 20 mg/kg, po and 3 mg/kg, iv. In kind it is ADME, organism-based. To be noted: in vivo.
The nature of data set [9]: Clearance in Sprague-Dawley rat at 20 mg/kg, po and 3 mg/kg, iv. In kind it is ADME, organism-based. To be noted: in vivo.

The compound `CCCOc1nc(-c2c(C)cc(C)cc2OC)nc(C)c1N(CCC)CCC` displayed a Ki in [1] of 0.053 µM.

In turn, `CCCN(CCC)c1c(C)nc(-c2c(C)cc(C)cc2OC)nc1OCC` returned a Ki in data set [1] of 0.016 µM.

With `CCCN(CCC)c1c(CC)nc(-c2c(C)cc(C)cc2OC)nc1OC`, in [1], the inhibition constant Ki is 0.022 µM.

Take `CCCN(CCC)c1c(C)nc(-c2c(OC)cc(C(F)(F)F)cc2C(F)(F)F)nc1OC`: the inhibition constant Ki in [1] turned out to be 0.006 µM.

`CCC(CC)Oc1c(C)nc(-c2c(C)cc(C)cc2OC)nc1OC` came in with an inhibition constant (Ki) in data set [1] of 0.008 µM. In addition, the IC50 in data set [2] worked out at 0.019 µM.

The compound `CCCN(CCC)c1c(C)nc(-c2c(C)cc(C)cc2OC)nc1OC` registered a Ki in data set [1] of 0.015 µM.

Regarding `CCCN(CCC)c1c(C)nc(-c2ccc(Cl)cc2Cl)nc1OC`, the Ki in data set [1] is above 10 µM.

Regarding `CCCN(CCC)c1c(C)nc(-c2c(C)cc(C)cc2C)nc1OC`, in data set [1], affinity was put at a Ki of 0.354 µM.

Compound `CCCN(CCC)c1c(CC(C)(C)O)nc(-c2c(C)cc(C)cc2OC)nc1OC` showed an inhibition constant (Ki) in data set [1] of 0.604 µM.

For `CCCN(CCC)c1c(C)nc(-c2c(C)cc(C)cc2OC)nc1Cl`, the inhibition constant Ki in data set [1] was 0.033 µM.

On to `CCCN(CCC)c1cnc(-c2c(C)cc(C)cc2OC)nc1C`, for which the Ki in data set [1] came to 0.561 µM.

In the case of `CCCN(CCC)c1c(CC(C)O)nc(-c2c(C)cc(C)cc2OC)nc1OC` (stereo not given), the inhibition constant (Ki) in data set [1] turned out to be 1.15 µM.

In turn, `CCCN(CCC)c1c(C)nc(-c2c(C)cc(C)cc2OC)c2ccccc12` registered a Cmax in data set [3] of 0.387 µg/mL. The same compound had a bioavailability in data set [4] of 5%. Also, the Tmax in data set [5] was 0.7 h. The compound also came in with a Vd in [6] of 13 L/kg. The IC50 in data set [2] turned out to be 0.012 µM. Further, in [7], the solubility is below 0.0005 mg/mL. The compound also had a half-life in data set [8] of 5.4 h. In data set [9], the clearance was 0.87 L/h/kg.

With `CCCN(CCC)c1c(C)nc(-c2c(OC)cccc2OC)nc1OC`, the Ki in data set [1] stood at 0.277 µM.

In turn, `CCC(CC)Oc1c(C)nc(-c2c(OC)cc(Cl)cc2OC)nc1OC` had a Cmax in [3] of 0.194 µg/mL. In data set [4], this compound yielded a bioavailability of 6%. Moreover, the Tmax in data set [5] amounted to 1.8 h. In [6], this compound showed a Vd of 14 L/kg. In [1], this compound came in with a Ki of 0.009 µM. In addition, in data set [2], the IC50 turned out to be 0.007 µM. Also, in data set [7], the concentration in solution (solubility) was 0.028 mg/mL (≈ 73.5 µM). The compound also had a half-life in [8] of 8.3 h. In addition, the clearance in [9] was found to be 0.816 L/h/kg.

Compound `CCCN(CCC)c1c(C)nc(-c2c(C)cc(C)cc2OC)nc1OC(C)C` registered a Ki in data set [1] above 5 µM.

For `CCC(CC)c1cc(C)nn2c(-c3sc(N4CCOCC4)nc3Cl)c(C)nc12`, in [1], the Ki turned out to be 0.0002 µM.

In [1], `CCCCN(CC)c1nc(C)nc2c1c(C)cn2-c1c(C)cc(C)cc1C` [CP-154526] gave a Ki of 0.003 µM.

Regarding `CCCc1nc(-c2c(C)cc(C)cc2OC)nc(OC)c1N(CCC)CCC`, the Ki in data set [1] was 0.076 µM.

For the compound `CCC(CC)Nc1c(C)nc(-c2c(C)cc(C)cc2OC)nc1OC`, affinity in data set [1] was put at a Ki of 0.094 µM.

`CCCN(CCC)c1c(C)nc(-c2c(OC)cc(Cl)cc2OC)nc1OC` showed a Cmax in [3] of 0.21 µg/mL. In data set [4], this compound displayed a bioavailability of 2%. In [5], the Tmax amounted to 0.6 h. Further, the Vd in data set [6] is 12 L/kg. The Ki in data set [1] turned out to be 0.002 µM. Further, the IC50 in [2] worked out at 0.001 µM. The solubility in [7] was 0.027 mg/mL (≈ 68.5 µM). The compound further had a half-life in [8] of 2.8 h. The clearance in [9] was determined as 1.26 L/h/kg.

For `COc1cc(C)cc(C)c1-c1nc(C)c(NCC(C)(C)C)c(OC)n1`, in data set [1], the inhibition constant (Ki) was above 10 µM.

With `CCCN(CCC)c1c(C)nc(-c2ccc(OC)cc2OC)nc1OC`, affinity in data set [1] was put at a Ki of 0.507 µM.

As to `CCCNc1c(C)nc(-c2c(C)cc(C)cc2OC)nc1OC`, the Ki in data set [1] was above 10 µM.

With `CCC(CC)Oc1c(C)nc(-c2c(OC)cc(C(F)F)cc2OC)nc1OC`, the Ki in data set [1] amounted to 0.009 µM.

As to `CCCN(CCC)c1c(C)nc(-c2c(C)cc(C)cc2OC)nc1OCCO`, in data set [1], the inhibitory constant (Ki) is 1.61 µM.

A word on the Ki: it is a dissociation constant, usually derived from enzyme kinetics or from competition with a known ligand. The low end stands for tighter binding, the high end for weaker binding. What is called IC50 is the midpoint of a concentration-inhibition curve. As usually defined, the Cmax is the highest concentration seen after dosing. A word on the bioavailability: it is dose-corrected exposure relative to a reference, in per cent. Lower therefore signals little systemic uptake. The Tmax is the time from dosing to the highest level. Broadly, the solubility is the concentration that dissolves in the medium under given conditions. A higher solubility goes with a readily soluble substance. By half-life is commonly meant the time needed for the level to fall by half in the phase considered. The low end stands for rapid decline, the high end for slow decline.
